{"source": "patent US6391577B1", "about": "“Rapid electrochemical assay for antibiotic and cytotoxic drug susceptibility in microorganisms” (priority 1999, dated 2002)", "key": {"[1]": {"test_system": "Clostridium sporogenes (ATCC 8075)", "assay": "Mediated chronocoulometric respiration assay (ferricyanide + DCIP, anaerobic)", "assay_type": "cell-based", "details": "for Mediated Chronocoulometric Respiratory Activity Remaining, Percent: average of two measurements, 20 min + 20 min at 37 C under nitrogen", "experimental": "This organism was chosen as a typical gram-positive, obligate anaerobe. Growth under anaerobic conditions was accomplished using a similar medium to that used for E. coli except that the concentrations of yeast extract and tryptone were doubled and the concentration of glucose was five-fold lower for the C. sporogenes growth. Assay conditions were the same as in Example 2, with the following exceptions. The incubation of 20 μL of the bacterial suspension with 130 μL of either the blank buffer or the chloramphenicol or lysozyme solution was done for 20 min at 37 C. Mediator solution (150 μL) containing 0.10 M ferricyanide and 10 μM 2,6-dichlorophenolindophenol (DCIP) was then added and the mixture was allowed to incubate for another 20 min at 37 C, giving final concentrations of 0.050 M ferricyanide and 5 μM DCIP, respectively. All manipulations were performed under a stream of nitrogen, to ensure the absence of oxygen, which is known to inhibit the growth of C. sporogenes. Measurement by chronocoulometry was performed in an identical manner as in Example 2."}, "[2]": {"test_system": "Clostridium sporogenes (ATCC 8075)", "details": "see Bergey; cited from earlier work"}, "E. coli JM105 [3]": {"test_system": "E. coli JM105", "assay": "Chronocoulometric mediated respiration assay (ferricyanide)", "assay_type": "cell-based", "experimental": "At this time, a platinum disk working electrode, Ag/AgCl reference electrode and a stainless steel auxiliary electrode are inserted, and a potential of +0.50 V is applied using a potentiostat. The measured current is integrated over time to produce a plot of total charge against time. The change in total charge is measured between 60 and 120 seconds after the potential is applied. The same procedures for E. coli growth, incubation with ferricyanide and antibiotic, and measurement were used in this Example as were used in Example 2. One antibiotic was studied for the effect of concentration, and this was chloramphenicol."}, "E. coli JM105 [4]": {"test_system": "E. coli JM105", "assay": "Integrated current (charge) measurement after incubation with lysozyme or EDTA", "assay_type": "cell-based", "details": "for Charge: single measurements, charge between 60 and 120 s", "experimental": "E. coli JM105 was grown in the same manner as in Example 1. The assay procedure used to determine the effect of lysozyme on mediated electrochemical respiration rate was as follows. […] Ferricyanide solution (270 μL) was then added so that the final ferricyanide concentration was 50 mM. These solutions were incubated at 37 C for 10 min. Each sample was then analyzed electrochemically using a Pt working electrode, Ag/AgCl reference electrode and a stainless steel auxilliary electrode, with an applied potential of +0.500 V. The current measured at the working electrode was integrated over the time between 60 and 120 seconds. These experiments were repeated to determine average values of integrated current (charge). The effect of ethylenediaminetetraacetate (EDTA) on electrochemical response was investigated in a similar manner. […] The samples were incubated 10 min at 37 C, and the electrochemical analysis was done as described above for lysozyme."}}, "note": "“And” between values parts separate entries of the source, which are not always exact repeats. Equal values may be shown once.", "data": [{"compound": "O=C(N[C@H](CO)[C@H](O)c1ccc([N+](=O)[O-])cc1)C(Cl)Cl", "note": "[Chloramphenicol]", "values": [{"measurement": "Mediated Chronocoulometric Respiratory Activity Remaining, Percent", "setting": "[1]; final concentration 5.00 mM", "result": 24, "unit": "%"}, {"measurement": "activity against growth", "setting": "[2]", "result": "active against the growth of this strain of Clostridium"}, {"measurement": "IC50", "setting": "E. coli JM105 [3]; Escherichia coli, JM105, from the concentration series of Table 5", "result": 48, "unit": "µM"}, {"measurement": "MIC", "setting": "E. coli JM105 [3]; Escherichia coli, JM105, from the concentration series of Table 5, read-out: minimum inhibitory concentration", "result": 0.48, "unit": "µM"}, {"measurement": "Mediated Chronocoulometric Respiration Activity Remaining, Percent", "setting": "E. coli JM105 [3]; chloramphenicol 0.0048 μM", "result": 95, "unit": "%"}, {"measurement": "Mediated Chronocoulometric Respiration Activity Remaining, Percent", "setting": "E. coli JM105 [3]; chloramphenicol 0.048 μM", "result": 102, "unit": "%"}, {"measurement": "Mediated Chronocoulometric Respiration Activity Remaining, Percent", "setting": "E. coli JM105 [3]; chloramphenicol 0.48 μM", "result": 66, "unit": "%"}, {"measurement": "Mediated Chronocoulometric Respiration Activity Remaining, Percent", "setting": "E. coli JM105 [3]; chloramphenicol 4.8 μM", "result": 58, "unit": "%"}, {"measurement": "Mediated Chronocoulometric Respiration Activity Remaining, Percent", "setting": "E. coli JM105 [3]; chloramphenicol 48 μM", "result": 52, "unit": "%"}, {"measurement": "Mediated Chronocoulometric Respiration Activity Remaining, Percent", "setting": "E. coli JM105 [3]; chloramphenicol 480 μM", "result": 35, "unit": "%"}, {"measurement": "Mediated Chronocoulometric Respiration Activity Remaining, Percent", "setting": "E. coli JM105 [3]; chloramphenicol 4800 μM", "result": 5, "unit": "%"}]}, {"compound": "Lysozyme: an enzyme that destroys cell walls and is used extensively in protein purification procedures", "values": [{"measurement": "Mediated Chronocoulometric Respiratory Activity Remaining, Percent", "setting": "[1]; final concentration 0.57 mg/mL", "result": 80, "unit": "%"}, {"measurement": "loss of activity", "setting": "[1]; lysozyme, conditions of Example 5", "result": 20, "unit": "%"}, {"measurement": "Charge, Average", "setting": "E. coli JM105 [4]; lysozyme solution 1.5 mg/mL, blank 32 +/− 3", "result": "22 +/− 1 μC"}, {"measurement": "loss of activity", "setting": "E. coli JM105 [4]; lysozyme, conditions of Example 3", "result": 31, "unit": "%"}, {"measurement": "Charge", "setting": "E. coli JM105 [4]; lysozyme solution 1.5 mg/mL, 15 min at 0 C, then 10 min at 37 C with 50 mM ferricyanide", "result": "21.1 μC and 22.8 μC and 21.6 μC"}]}, {"compound": "O=C(O)CN(CCN(CC(=O)O)CC(=O)O)CC(=O)O", "note": "[EDTA, Ethylenediaminetetraacetate]", "values": [{"measurement": "Charge, Average", "setting": "E. coli JM105 [4]; 5 mM EDTA, blank 38 +/− 2", "result": "45 +/− 2 μC"}, {"measurement": "Charge", "setting": "E. coli JM105 [4]; 5 mM EDTA in 50 mM ferricyanide, 10 min at 37 C", "result": "46.3 μC and 43.1 μC and 45.2 μC and 43.3 μC"}]}]}
